Reference: patent EP0292365A2, “4-Amino-5,8-quinazolindione derivatives, process for their preparation and pharmaceutical compositions containing them” (CENTRE NATIONAL DE LA RECHERCHE SCIENTIFIQUE, priority 1987, dated 1988)
Like-named read-outs stand apart in the source and are kept apart here.

System: Leucémie L1210
Assay type: in vivo, souris DBA/2
Conditions: for survivants 30 jours / Δ P J1-J5 / T/C / Doses actives (T/C ≥ 125 %): L1210, greffe ip(10^5cel.); for T/C: survivants inclus
Text: Afin de tester l'activité antitumorale des composés décrits plus haut, on a utilisé les leucémies murines P388 et L1210, ainsi que le mélanome murin B16. La leucémie P388 est considère comme très sensible et permet une première sélection. D'autre part, une substance ayant une grande activité sur la leucémie L1210 a une grande chance d'être active en clinique humaine (J.M. Venditti; Relevance of transplantable animal tumor systems to the Selection of new agents for clinical trial in pharmacological basis of cancer chemotherapy. The University of Texas ed. Williams and Wilkins, publ. 1975, Baltimore USA).
La leucémie L1210 de la souris est en effet couramment utilisée pour l'évaluation de tous les composés antitumoraux actuellement mis en oeuvre en thérapeutique humaine, ainsi qu'il est décrit, par exemple par C.C. Zubrod dans Proc. Nat. Acad. Sci. USA 69, 1972, p. 1042-1047. Le système tumoral ainsi constitué expérimentalement permet une évaluation quantitative très précise de l'activité du composé testé, et, par conséquent aussi, une comparaison objective entre les activités respectives de différents composés, par exemple selon les méthodes décrites par R. E. Skipper, F. M. Schabel, Jr. et W. S. Wilcox dans Cancer Chemother. Rep., 35, 1964, p. 1-111 et 45, 1965, p.5-28.
Cette étude a été réalisée sur 1, 2 ou 3 tumeurs murines expérimentales selon le schéma suivant :
Les produits en solution dans l'eau ou en suspension dans du Klucel sont administrés par voie intrapéritonéale 24 heures après la greffe des cellules tumorales (10 animaux par série), soit en injection unique (J1), soit pendant 9 jours consécutifs (Ji-9). Les morts sont relevés chaque jour à la même heure. La comparaison du temps médian de survie des souris témoins (C) et des souris traitées (T) permet d'apprécier l'activité antitumorale du produit. On adopte comme critère d'activité minimale la valeur de T/C supérieure ou égale à 125 % conformément aux critères établis par GERAN et par l'O.M.S. (Réf. GERAN R.I., GREENBERG N.H., MACDONALD M.M., SCHUMACHER A.M. and ABBOTT B.J. Protocols for screening chemical agents and natural products against animal tumors and other biological systems. Cancer Chemother. Rep. Part 3, 3, 1-103 (1972)).
Lorsque le composé est actif sur plusieurs tumeurs, son administration par d'autres voies que la voie intrapéritonéale (i.p.) est envisagée : orale (p.o) et intraveineuse (i.v). Les résultats des essais effectués à l'aide du composé 63 sont rassemblés dans le tableau IV ci-après.
Dans les tableaux IV et IV Bis, P représentent la variation de poids entre J1 et J5 des animaux traités; lorsque P est supérieure à environ 4 g, cela signifie que la dose à laquelle le composé a été testé est toxique.

[1] = ip J1-9, dose optimale 0,4 mg/kg/inj.
[2] = ip J1, dose optimale 2 mg/kg/inj.

CN(C)CCCNc1ncnc2c1C(=O)C(N1CC1)=C(N1CC1)C2=O [composé 63]
survivants 30 jours [1]: 1
Δ P J1-J5 [1]: -1,6 g
T/C [1]: 174%
survivants 30 jours [2]: 1
Δ P J1-J5 [2]: -2,8 g
T/C [2]: 160%
Doses actives (T/C ≥ 125 %) (traitement ip J1): 0,25-2 mg/kg/inj.
Doses actives (T/C ≥ 125 %) (traitement ip J1-9): 0,03-0,8 mg/kg/inj.
activité sur la leucémie L1210 (summary): très efficace
